According to US20120095024A1, “TOLUIDINE SULFONAMIDES AND THEIR USE” (Elara Pharmaceuticals GmbH, priority 2008, published 2012):

Assays:
[1] = test system: estrogen receptor (ER)-mediated transcriptional activity; assay: Inhibition of estrogen receptor (ER) signaling, ERE-tk-luc transfection assay in MCF-7 cells; format: cell-based; details: Homo sapiens, MCF7, ERE-tk-luc luciferase readout, 24 h
Protocol: To determine the effect of the compounds on estrogen receptor (ER)-mediated transcriptional activity a transfection assay using the MCF-7 cell line was performed. A luciferase-coupled ERE-tk-luc construct was obtained from Dr. G. Reid (EMBL).
In brief, MCF-7 cells were maintained as described previously and seeded on the first experimental day at a concentration of 3500 cells/well in 100 μl medium and incubated under standard conditions for 24 h. Following this initial incubation period, transfection was carried out using 5 ng of the ERE-tk-luc construct (per well) and Exgene 500 transfection reagent (Fermentas) in a final buffered solution containing 150 mM NaCl and 20 mM Tris pH 8.4. The plates were then maintained for 3-4 hours until cell culture conditions in the incubator before compounds were added at 11× concentrations to yield the final desired compound concentrations in 0.5% DMSO (in the same manner as for the proliferation assays described previously).
After an additional 24 h incubation period the degree of inhibition of ER-signaling was determined via a luciferase readout. Cells were treated with Britelite™ plus solution according to the manufacturer's instructions (PerkinElmer, britelite plus, Ultra-High Sensitivity Luminescence Reporter Gene Assay System) and luciferase levels measured on an Envision HTS multilabel plate reader (PerkinElmer) in luminescence mode according to established protocols. Raw data were imported into an ActivityBase database (IDBS, ID Business Solutions) and IC50 values calculated using the IDBS program ActivityBase XE.

MCF7 cells = assay: Cell proliferation assay (ATPlite), MCF-7; format: cell-based, human; details: inhibition of cell proliferation, 72 h
Protocol: MCF-7 human breast adenocarcinoma cells and HL-60 acute promyelocytic leukaemia cells were obtained from ATCC (LGC Promochem). HG-1 multiple myeloma cells were obtained from Dr. D. Hose (DKFZ Heidelberg). The CellSensor® HRE-bla HCT116 cell line (colorectal carcinoma) was obtained from Invitrogen.
Cells were grown under humidified 95% air, 5% CO2 at 37° C. in Dulbecco's modified Eagle's medium (DMEM: MCF-7) or RPMI 1640 medium (RPMI: HL-60, HG-1) supplemented with 10% fetal bovine serum (FBS), 100 U/ml penicillin and 100 μg/ml streptomycin, 2 mM L-glutamine, and 2 ng/ml IL-6 (for the HG-1 cell line only). The HCT116 cell line was grown under the same atmospheric conditions in McCoy's 5A medium supplemented with 10% FBS and penicillin/streptomycin as above, in addition to blasticidin as a selection marker at a final concentration of 5 μg/ml.
Cell proliferation experiments were carried out in 96-well tissue culture plates with seeding of 2000 cells/well (MCF-7) or 1000 cells/well (HL-60, HG-1) in 100 μl of the relevant medium. Cells were subsequently incubated under the conditions mentioned for 24 h prior to addition of compounds.
For the determination of compound EC50 values, 10 μl compounds at 11× concentrations in 5.5% DMSO were added to the wells at various concentrations yielding a final constant percentage of 0.5% DMSO at the desired 1× compound concentration. As a positive control, cells were treated with 5.5% DMSO. The cells were then incubated for a further 72 h prior to the measurement.
To determine the degree of inhibition of cell proliferation, cells were treated with ATPlite solution according to the manufacturer's instructions (PerkinElmer, ATPlite 1-step Luminescence ATP Detection Assay System) and luciferase readout measured on an Envision HTS multilabel plate reader (PerkinElmer) in luminescence mode according to established protocols. Raw data were imported into an ActivityBase database (IDBS, ID Business Solutions) and EC50 values calculated using the IDBS program ActivityBase XE. Table 2A and 2B show the IC50 values obtained in the above-outlined cell proliferation assay for exemplary compounds of the invention.

[2] = test system: HIF mediated transcription; assay: Inhibition of activation of HIF mediated transcription under hypoxic conditions (CellSensor HRE-bla HCT-116); format: cell-based; details: Homo sapiens; HRE-bla HCT-116 cells, deferoxamine-induced hypoxia, 24 h
Protocol: Inhibition of an activated HIF signaling response under chemically-induced hypoxic conditions due to compound treatment was determined using the CellSensor® HRE-bla HCT-116 stably transfected reporter cell line from Invitrogen according to the manufacturer's instructions. HIF is a transcriptional factor composed of the constitutively expressed HIF1β subunit and one of three HIFα subunits (HIF1α, HIF2α, HIF3α). This assay is responsive towards HIFa activity in general. In one example, HIF-1, when stabilized by hypoxic conditions, upregulates several genes to promote cell survival in low-oxygen conditions. These include glycolysis enzymes, which allow ATP synthesis in an oxygen-independent manner, and vascular endothelial growth factor (VEGF), which promotes angiogenesis. HIF-1 acts by binding to HIF-responsive elements (HREs) in promoters that generally contain the sequence NCGTG.
Cells were maintained as described previously and seeded into 384-well, clear-bottom plates (Corning 3712) at 15000 cells/well in 32 μl assay medium (Opti-MEM [Invitrogen], 0.5% FBS, 100 U/ml penicillin, 100 μg/ml streptomycin, 0.1 mM non-essential amino acids [NEAA], 1 mM sodium pyruvate, 5 mM HEPES [pH 7.3]). Following a 2 h incubation period, compounds (4 μl) were subsequently added to the cells at 10× concentrations in 5% DMSO and incubated under normal conditions for 30 min. To induce hypoxic conditions, 4 μl of a 2 mM deferoxamine (DFO) solution was added to the cells followed by 24 h incubation under standard assay conditions (as described). Control wells included wells containing only medium (no cells) and wells treated with 0.5% DMSO instead of compound.
Prior to the readout, the Substrate Loading Solution was prepared as described in the manufacturer's protocol and 10 μl added to each well. Following a further 2 h incubation period at room temperature and in the dark, fluorescence was measured at two wavelengths (blue channel: ex. 409 nm, em. 460 nm; green channel: ex. 409 nm, em. 530 nm) on a PerkinElmer Envision HTS. For the analysis, the average signal of the cell-free wells at 460 nm and 530 nm was first subtracted from the blue and green channel data, respectively. The blue/green emission ratios were then calculated for each well, dividing the background-corrected blue emission values by the background-corrected green emission values. IC50 values were determined from these ratios using GraphPad Prism (Prism 5, GraphPad software, Inc.).

Molecule | EC50 (MCF7 cells; Homo sapiens) | further results
Cc1ccc(S(=O)(=O)Nc2cc(-c3ccco3)ccc2C)cc1 [Example 4, N-(5-Furan-2-yl-2-methyl-phenyl)-4-methyl-benzenesulfonamide] | < 500 nM | IC50 [1]: < 500 nM
Cc1ccc(S(=O)(=O)Nc2cc(-c3csc(C#N)c3)ccc2C)cc1 [Example 68, N-[5-(5-Cyano-thiophen-3-yl)-2-methyl-phenyl]-4-methyl-benzenesulfonamide] | < 500 nM | EC50 [2]: < 500 nM
Cc1ccc(S(=O)(=O)Nc2cc(-c3ccc(C#N)c(F)c3)ccc2C)cc1 [Example 71, N-(4′-Cyano-3′-fluoro-4-methyl-biphenyl-3-yl)-4-methyl-benzenesulfonamide] | < 500 nM | EC50 [2]: < 500 nM
Cc1ccc(S(=O)(=O)Nc2cc(-c3csc(C#N)c3)ccc2C)cc1F [Example 95, N-(5-(5-cyanothiophen-3-yl)-2-methylphenyl)-3-fluoro-4-methylbenzenesulfonamide] | < 500 nM | EC50 [2]: < 500 nM
Cc1ccc(-c2csc(C#N)c2)cc1NS(=O)(=O)c1ccc([N+](=O)[O-])cc1 [Example 96, N-(5-(5-cyanothiophen-3-yl)-2-methylphenyl)-4-nitrobenzenesulfonamide] | 1000 to 10000 nM | –
Cc1ccc(-c2ccc(C#N)cc2)cc1NS(=O)(=O)c1ccc(Cl)cc1 [Example 97, 4-chloro-N-(4′-cyano-4-methylbiphenyl-3-yl)benzenesulfonamide] | < 500 nM | –
Cc1ccc(-c2ccc(C#N)s2)cc1NS(=O)(=O)c1ccc(O)cc1 [Example 98, N-(5-(5-cyanothiophen-2-yl)-2-methylphenyl)-4-hydroxybenzenesulfonamide] | 500 to 1000 nM | –
COc1cc(-c2ccc(C)c(NS(=O)(=O)c3ccc(C)c(F)c3)c2)ccc1C#N [Example 99, N-(4′-cyano-3′-methoxy-4-methylbiphenyl-3-yl)-3-fluoro-4-methylbenzenesulfonamide] | < 500 nM | –
Cc1ccc(-c2ccc(C#N)cc2)cc1NS(=O)(=O)c1ccc(O)cc1 [Example 100, N-(4′-cyano-4-methylbiphenyl-3-yl)-4-hydroxybenzenesulfonamide] | 1000 to 10000 nM | –
COc1cc(-c2ccc(C)c(NS(=O)(=O)c3ccc([N+](=O)[O-])cc3)c2)ccc1C#N [Example 101, N-(4′-cyano-3′-methoxy-4-methylbiphenyl-3-yl)-4-nitrobenzenesulfonamide] | 1000 to 10000 nM | –
COc1cc(-c2ccc(C)c(NS(=O)(=O)c3ccc(N)cc3)c2)ccc1C#N [Example 102, 4-amino-N-(4′-cyano-3′-methoxy-4-methylbiphenyl-3-yl)benzenesulfonamide] | < 500 nM | –
COc1ccc(S(=O)(=O)Nc2cc(-c3ccc(C#N)c(OC)c3)ccc2C)cc1F [Example 103, N-(4′-cyano-3′-methoxy-4-methylbiphenyl-3-yl)-3-fluoro-4-methoxybenzenesulfonamide] | < 500 nM | EC50 [2]: < 500 nM
Cc1ccc(-c2ccc(C#N)cc2)cc1NS(=O)(=O)c1cccc(F)c1 [Example 104, N-(4′-cyano-4-methylbiphenyl-3-yl)-3-fluorobenzenesulfonamide] | 1000 to 10000 nM | –
Cc1ccc(-c2ccc(C#N)cc2)cc1NS(=O)(=O)c1ccc([N+](=O)[O-])c(F)c1 [Example 105, N-(4′-cyano-4-methylbiphenyl-3-yl)-3-fluoro-4-nitrobenzenesulfonamide] | 1000 to 10000 nM | –
Cc1ccc(S(=O)(=O)Nc2cc(-c3ccc(N)cn3)ccc2C)cc1 [Example 106, N-(5-(5-aminopyridin-2-yl)-2-methylphenyl)-4-methylbenzenesulfonamide] | 1000 to 10000 nM | –
COc1nccc(-c2ccc(C)c(NS(=O)(=O)c3ccc(C)cc3)c2)n1 [Example 107, N-(5-(2-methoxypyrimidin-4-yl)-2-methylphenyl)-4-methylbenzenesulfonamide] | 1000 to 10000 nM | –
COc1ccc(S(=O)(=O)Nc2cc(-c3ccc(C#N)s3)ccc2C)cc1OC [Example 108, N-(5-(5-cyanothiophen-2-yl)-2-methylphenyl)-3.4-dimethoxybenzenesulfonamide] | – | EC50 (MCF7 cells): 500 to 1000 nM
COc1ccc(S(=O)(=O)Nc2cc(-c3ccc(C#N)s3)ccc2C)cc1C [Example 109, N-(5-(5-cyanothiophen-2-yl)-2-methylphenyl)-4-methoxy-3-methylbenzenesulfonamide] | < 500 nM | –
Cc1ccc(-c2ccc(C#N)cc2)cc1NS(=O)(=O)c1ccc(N)c(F)c1 [Example 110, 4-amino-N-(4′-cyano-4-methylbiphenyl-3-yl)-3-fluorobenzenesulfonamide] | < 500 nM | –
Cc1ccc(S(=O)(=O)Nc2cc(-c3ccc([N+](=O)[O-])c(C)n3)ccc2C)cc1 [Example 111, 4-methyl-N-(2-methyl-5-(6-methyl-5-nitropyridin-2-yl)phenyl)benzenesulfonamide] | < 500 nM | –
Cc1cc(S(=O)(=O)Nc2cc(-c3ccc(C#N)s3)ccc2C)ccc1F [Example 112, N-(5-(5-cyanothiophen-2-yl)-2-methylphenyl)-4-fluoro-3-methylbenzenesulfonamide] | < 500 nM | EC50 [2]: < 500 nM
COc1cc(S(=O)(=O)Nc2cc(-c3ccc(C#N)s3)ccc2C)ccc1F [Example 113, N-(5-(5-cyanothiophen-2-yl)-2-methylphenyl)-4-fluoro-3-methoxybenzenesulfonamide] | 500 to 1000 nM | –
Cc1ccc(-c2ccc(C#N)s2)cc1NS(=O)(=O)c1ccc2c(c1)OCO2 [Example 114, N-(5-(5-cyanothiophen-2-yl)-2-methylphenyl)benzo[d][1,3]dioxole-5-sulfonamide] | < 500 nM | EC50 [2]: < 500 nM
Cc1ccc(-c2ccc(C#N)cc2)cc1NS(=O)(=O)c1ccc(N(C)C)cc1 [Example 115, N-(4′-cyano-4-methylbiphenyl-3-yl)-4-(dimethylamino)benzenesulfonamide] | < 500 nM | –
Cc1ccc(-c2ccc(C#N)s2)cc1NS(=O)(=O)c1ccc(C#N)cc1 [Example 116, 4-cyano-N-(5-(5-cyanothiophen-2-yl)-2-methylphenyl)benzenesulfonamide] | 500 to 1000 nM | –
N-[5-(5-Cyano-pyridin-3-yl)-2-methyl-phenyl]-4-methoxy-benzenesulfonamide [Example 74] | – | EC50 (MCF7 cells): < 500 nM
